Consider 44 compounds from publication PMC10766984, “Josephin domain containing 2 (JOSD2) promotes lung cancer by inhibiting LKB1 (Liver kinase B1) activity” (Signal Transduction and Targeted Therapy, 2024).

Broadly, the T/C is the result in the treated group divided by that in the control group, in per cent. The inhibition is the drop in the measured response relative to a control, in per cent.

Counter-ions that a name gives are not always drawn.

The test system of one data set is PDX LUAD 110519 (Case 1). Kind of data set: Patient-derived xenograft study, intratumor JOSD2 shRNA. It is filed as in vivo, BALB/c-Nude mice.
Conditions: not given
The protocol:
(§1) PDXs were established in our lab using female BALB/c-Nude mice (4-5 weeks) implanted with tumor tissues from patients undergoing surgeries. […] Once tumors reached approximately 50 mm^3 in volume, mice were randomly assigned to scramble control or JOSD2 shRNA intra-tumor injection treatment. For the intratumor injection, a mice received an intratumorally injection of 5 ×10^6 lentiviruses in 20 μL sterile saline solution every two days.
For orientation: A xenograft is tissue or cells of one species grown in another, often human tumour cells in immunodeficient mice.
As for “shJOSD2#1: gene-specific shRNA targeting JOSD2, GCAACTATGATGTCAATGTGA, delivered by lentiviral vector (lentiviral shRNA)”, the Inhibition ratio is on record as 64.73% and the T/C was found to be 37.84%.

The data set is the same for the next values; noted with them: at the endpoint.
“shJOSD2#1: gene-specific shRNA targeting JOSD2, GCAACTATGATGTCAATGTGA, delivered by lentiviral vector (lentiviral shRNA)”: the “Tumor Weight” value is 0.14 ± 0.07 g.

Staying with this data set, now noted: intratumor injection.
For “shJOSD2#1: gene-specific shRNA targeting JOSD2, GCAACTATGATGTCAATGTGA, delivered by lentiviral vector (lentiviral shRNA)”, the RTV turned out to be 3.20 ± 1.37.

Another data set concerns PDX LUAD 083120 (Case 2). Described as above. It is filed as in vivo, BALB/c-Nude mice.
Conditions: not given
The procedure:
as §1
On to “shJOSD2#1: gene-specific shRNA targeting JOSD2, GCAACTATGATGTCAATGTGA, delivered by lentiviral vector (lentiviral shRNA)”, for which the Inhibition ratio came out at 52.24% and the T/C worked out at 64.34%.

The same data set, now with this note: at the endpoint.
For the compound “shJOSD2#1: gene-specific shRNA targeting JOSD2, GCAACTATGATGTCAATGTGA, delivered by lentiviral vector (lentiviral shRNA)”, the “Tumor Weight” value is 0.08 ± 0.02 g.

Staying with this data set, now noted: intratumor injection.
On to “shJOSD2#1: gene-specific shRNA targeting JOSD2, GCAACTATGATGTCAATGTGA, delivered by lentiviral vector (lentiviral shRNA)”, for which the RTV is recorded as 2.73 ± 0.63.

In the next data set the target is T1, GST-JOSD2 (Homo sapiens, UniProt Q8TAC2).
T1 sequence (Q8TAC2 1-188): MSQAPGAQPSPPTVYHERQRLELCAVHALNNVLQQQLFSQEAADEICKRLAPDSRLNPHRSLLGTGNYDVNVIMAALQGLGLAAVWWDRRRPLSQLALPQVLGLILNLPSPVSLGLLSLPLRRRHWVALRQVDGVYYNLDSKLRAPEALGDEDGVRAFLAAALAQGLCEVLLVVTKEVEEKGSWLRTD
Test: not given
As to conditions: 2 μM compound incubated with GST-JOSD2 at 37 °C for 30 min.
For the compound `O=C1C=CC(=O)c2c1nnn2Cc1cc(F)cc(Cl)c1` [HY032801], the “JOSD2 activity inhibition ratio” value is recorded as −0.98%.
In the case of `N#CSc1cc(SC#N)c(N)nc1N` [PR-619, reference compound], the “JOSD2 activity inhibition ratio” value was 42.70%.

The data set is the same for the next values; noted with them: compound concentration 2 μM; JOSD2 inhibitor screening, related to Fig. 7a.
As to `CN1C2=CC(=O)/C(=N\NC(N)=O)C=C2CC1S(=O)(=O)[O-].[Na+]` (stereo not drawn) [AC-17 (Carbazochrome sodium sulfonate)], the “JOSD2 Activity Inhibition (%)” value is given as 9.85%.
Consider `Cl.N=C(N)NN` [Aminoguanidine hydrochloride], for which the “JOSD2 Activity Inhibition (%)” value is reported as -35.00%.
On the same count and under the same terms, to `CCO/N=C1\c2ccccc2-c2nc(C#N)c(C#N)nc21` [DUBs-IN-2] belongs 5.01%; to `C=CCO/N=C1\c2ccccc2-c2nc(C#N)c(C#N)nc21` [DUBs-IN-3], 14.15%.
On the same count and under the same terms, the figure for `CC1(C)[C@@H](O[C@H]2O[C@H](C(=O)O)[C@@H](O)[C@H](O)[C@H]2O[C@@H]2O[C@H](C(=O)O)[C@@H](O)[C@H](O)[C@H]2O)CC[C@]2(C)[C@H]3C(=O)C=C4[C@@H]5C[C@@](C)(C(=O)O)CC[C@]5(C)CC[C@@]4(C)[C@]3(C)CC[C@@H]12.N.N` [Diammonium Glycyrrhizinate] is -22.76%.
On to `CCCC(NC(=O)/C(C#N)=C/c1nc(Cl)ccc1Cl)c1ccc(OCCN2CCOCC2)cc1` (stereo not drawn) [EOAI3402143], for which the “JOSD2 Activity Inhibition (%)” value is 29.05%.
The same measure, in the same setting: to `CCc1c(-c2ccc3[nH]ncc3c2)cnc(N)c1-c1ccc(O)cc1` [GNE-6640] belongs 12.54%.
On the same count and under the same terms, to `O=C(c1ccc(F)cc1)C1CCN(CCn2c(=O)[nH]c3ccccc3c2=O)CC1` [Ketaneserin] belongs -29.69%.
The same measure, in the same setting: the figure for `CC(=O)O/N=C1\C(=O)N(Cc2cc(Cl)ccc2Cl)c2ccc(Cl)cc21` [LDN-57444] is -16.75%.
For the compound `C[C@H]1C[C@@H]2[C@H]([C@@H](O)C[C@@]3(C)[C@H]2CC[C@]3(O)C(=O)COC(=O)CCC(=O)[O-])[C@@]2(C)C=CC(=O)C=C12.[Na+]` [Methylprodnisolone Sodium Succinate], the “JOSD2 Activity Inhibition (%)” value is -78.62%.
The same measure, in the same setting: to `N#CSc1cc(SC#N)c(N)nc1N` [PR-619, reference compound] belongs 42.70%; to `C[C@]12C=CC(=O)C=C1CC[C@@H]1[C@@H]2[C@@H](O)C[C@@]2(C)[C@H]1CC[C@]2(O)C(=O)COP(=O)([O-])[O-].[Na+].[Na+]` [Prednisolone phosphate sodium], 36.74%.
On the same count and under the same terms, the figure for `O=C1c2ccccc2C(=O)c2oc(-c3ccccc3)nc21` [SJB2-043] is 13.43%.
Take `O=C1c2ccccc2C(=O)c2oc(-c3cccnc3)nc21` [SJB3-019A]: the “JOSD2 Activity Inhibition (%)” value was determined as 42.78%.
In the case of `O=C(CCc1ccccc1)N1CCC(O)(Cn2cnc3cc(Cl)ccc3c2=O)CC1` [USP7-IN-1], the “JOSD2 Activity Inhibition (%)” value is reported as -29.77%.
Same read-out and setting: the figure for `O=C1/C(=C/c2ccc([N+](=O)[O-])cc2)CS(=O)(=O)C/C1=C\c1ccc([N+](=O)[O-])cc1` [Ubiquitin Isopeptidase Inhibitor I] is 1.00%; for `C=CC(N)CCC(=O)O.Cl` (stereo not drawn) [Vigabatrin Hydrochloride] it is -16.37%; for HBX 19818 it is -0.37%.
On to Tyloxapol, for which the “JOSD2 Activity Inhibition (%)” value is listed as 29.65%.

The data set is the same for the next values; noted with them: read-out: JOSD2 Activity Inhibition (%).
Take `CC(=O)OCC(=O)[C@@]12OC3(CCCC3)O[C@@H]1C[C@H]1[C@@H]3CCC4=CC(=O)C=C[C@]4(C)[C@@]3(F)[C@@H](O)C[C@@]12C` [Amcinonide]: the inhibition at 2 µM is -19.2%.
Still for that read-out and setting: to `CCOC(=O)C1=C(COCCN)NC(C)=C(C(=O)OC)C1c1ccccc1Cl` (stereo not drawn) [Amlodipine Besylate] belongs -24.3%; to `CCCCC(=O)O[C@]1(C(=O)CO)[C@@H](C)C[C@H]2[C@@H]3CCC4=CC(=O)C=C[C@]4(C)[C@@]3(F)[C@@H](O)C[C@@]21C` [Betamethasone 17-valerate], -26%; to `C[C@]12CCC(=O)C=C1C=C[C@@H]1[C@@H]2CC[C@@]2(C)[C@H]1CC[C@@]21CCC(=O)O1` [Canrenone], -22.3%.
The same measure, in the same setting: the figure for `COc1cc(CNC(=O)CCCC/C=C/C(C)C)ccc1O` [Capsaicin] is 1.77%; for `COC(=O)[C@H](c1ccccc1Cl)N1CCc2sccc2C1` [Clopidogrel sulfate] it is -15%.
Same read-out and setting: the figure for `CN1C[C@H](C(=O)N[C@]2(C)O[C@@]3(O)[C@@H]4CCCN4C(=O)[C@H](Cc4ccccc4)N3C2=O)C=C2c3cccc4[nH]cc(c34)C[C@H]21` [Ergotamine bitartrate] is -5.18%.
As to `O=S(=O)(O)c1cc(O)ccc1O` [Etamsylate], the inhibition at 2 µM was -21.4%.
On to `CC(C)(Sc1ccc(CCN(CCCCC2CCCCC2)C(=O)NC2CCCCC2)cc1)C(=O)O` [GW7647], for which the inhibition at 2 µM was -29.7%.
On to `O=C1C=CC(=O)c2c1nnn2Cc1cc(F)cc(Cl)c1` [HY032801], for which the inhibition at 2 µM was -0.98%.
On the same count and under the same terms, to `COc1ccc(O)cc1` [Leucobasal] belongs -15.3%; to `CC(=O)[C@H]1CC[C@H]2[C@@H]3C[C@H](C)C4=CC(=O)CC[C@]4(C)[C@H]3[C@@H](O)C[C@]12C` [Medrysone], -8.83%.
Turning to `CC(C)(C(=O)c1cccnc1)c1cccnc1` [Metyrapone], the inhibition at 2 µM was -6.94%.
On to `CCOC(=O)[N-]c1cn(N2CCOCC2)n[o+]1` [Molsidomine], for which the inhibition at 2 µM came out at 35.8%.
For the compound `CC(CCc1ccccc1)NC(C)C(O)c1ccc(O)cc1` (stereo not drawn) [Nylidrin hydrochloride], the inhibition at 2 µM was -31.9%.
For `COc1ccc(Cc2nccc3cc(OC)c(OC)cc23)cc1OC` [Papaverine hydrochloride], the inhibition at 2 µM was -27.9%.
Same read-out and setting: the figure for `C#CCN(C)Cc1ccccc1` [Pargyline] is 29.8%; for `CCc1ccc(CCOc2ccc(CC3SC(=O)NC3=O)cc2)nc1` (stereo not drawn) [Pioglitazone hydrochloride] it is -5%.
On to `CC(C(=O)O)c1ccc2c(c1)Cc1cccnc1O2` (stereo not drawn) [Pranoprofen], for which the inhibition at 2 µM is -2.73%.
On the same count and under the same terms, to `CCN(CC)CCNC(=O)c1ccc(N)cc1` [Procainamide hydrochloride] belongs -20.4%; to `C#CCN[C@@H]1CCc2ccccc21` [Rasagiline], 29%; to `O=P(O)(O)C(O)(Cc1cccnc1)P(=O)(O)O` [Risedronate Sodium], 4.34%.
On to `CC(=O)OCC(=O)NCCCOc1cccc(CN2CCCCC2)c1` [Roxatidine Acetate hydrochloride], for which the inhibition at 2 µM is -20.8%.
With `CCCSc1nc(N[C@@H]2C[C@H]2c2ccc(F)c(F)c2)c2nnn([C@@H]3C[C@H](OCCO)[C@@H](O)[C@H]3O)c2n1` [Ticagrelor], the inhibition at 2 µM stood at 23.1%.

The next data set has as its system LKB1-WT NSCLC cell lines. Kind of data set: Proliferation assay, panel of LKB1-WT cell lines. It is filed as cell-based. The settings on record: indicated concentrations, 72 h. The protocol:
The indicated cell lines were treated with indicated compounds at a series of concentrations for 72 h, followed by cell proliferation assay and colony formation assay. Black dashed line indicates 50% of cell survival.
For cell proliferation assay, cells infected with lentiviruses packaged indicated plasmids were seeded indicated number cells per well in 96-well plates. Cell number (absorbance) was then estimated by the sulforhodamine B (SRB) (Sigma-Aldrich, #230162) assay and the absorbance of the individual wells was determined at the optical density of 515 nm. For colony formation assay, cells infected with lentiviruses packaged indicated plasmids were seeded indicated number cells per well in 6-well plates. Two weeks later, cells were stained with SRB and the numbers of colonies having more than 50 cells were counted.
Consider `O=C1C=CC(=O)c2c1nnn2Cc1cc(F)cc(Cl)c1` [HY032801], for which the “Cell viability / cell proliferation” value was “failed to inhibit cell proliferation”.
